Data from publication PMC9977398, “Next-generation membrane-active glycopeptide antibiotics that also inhibit bacterial cell division” (Chemical Science, 2023).
Values after ≈ are worked out from the molar mass of the structure shown. Like-named read-outs stand apart in the source and are kept apart here.

Assays:
[1] = test system: MRSA, methicillin-resistant S. aureus (ATCC 33591); experiment: MIC determination, micro-dilution broth; type: cell-based; settings: Staphylococcus aureus, read-out: Minimum inhibitory concentration, MRSA
Protocol: (§1) The increase in the carbon content of substituted moieties from six (1) to seven (2 and 3) to ten (5) to twelve (4), increased activity. […]
(§2) Test compound was assayed in a micro -dilution broth format as per the CLSI guideline. The bacterial freeze dried stock samples were stored at -80 °C. About 5 μL of these stocks were added to 3 mL of the respective broth and the culture was grown for 6 h at 37°C with prior to the experiments. This 6 h grown culture was diluted to give effective cell concentration of 10 5 CFU/mL which was then used for determining MIC. Compounds were serially diluted 2 -fold, in sterile millipore water and 50 μL of these serial dilutions were added to the wells of 96 well plate followed by the addition of about 150 μL of bacterial solution. The plates were then incubated for 18-24 h at 37 °C. The O.D. value at 600 nm was recorded using TECAN (Infinite series, M200 pro) Plate Reade r. Each concentration had triplicate values and the whole experiment was done at least twice and the MIC value was determined by taking the average of triplicate O. D. values for each concentration and plotting it against concentration. The data was then subjected to sigmoidal fitting. From the curve the MIC value was determined, as the point where the O. D. was similar to that of control having no bacteria.

[2] = test system: AB 1425 (A. baumannii MTCC 1425); experiment: MIC determination, micro-dilution broth; type: cell-based
Protocol: as §1, §2

B. subtilis = experiment: Cell wall biosynthesis inhibition assay (bubble assay); type: cell-based; settings: treatment at PEC
Protocol: To further study the mechanisms contributing to the growth retardation, microscopic studies were carried out upon treatment of B. subtilis with compounds. Upon inhibition of cell wall biosynthesis, holes are formed in the peptidoglycan layer where new cell wall material is no longer incorporated. The cytoplasmic membrane extrudes out of these perforations, appearing as bubbles on the cell surface when treated with a 1 : 3 mixture of acetic acid and methanol.[30] […]
and the untreated control were carefully removed from the well, washed with 0.9 % saline, and placed on glass slides. The biofilms were then stained with 10 μL of SYTO9 (60μM) and imaged using a Zeiss 510 Meta confocal laser-scanning microscope. The orthogonal projections of the images were processed with LSM 5 Image examiner. The experiment was performed three times independently and the image provided is representative of these.
Determination of MIC against B. subtilis
Overnight cultures of B. subtilis 168 were grown in 50 mL flasks in 5 mL BMM media. The bacteria in the mid-log phase were then incubated with compounds for 18 h at 37 ̊C in BMM media. The MIC was determined as the lowest concentration at which no visible bacterial OD […]
Determination of Physiologically Effective Concentration7
Overnight cultures of B. subtilis 168 were grown in 50 mL flasks with 10 mL of media. Upon growing to mid-log phase (an OD500 between 0.5 and 1), bacteria was inoculated in 100mL BMM in a 500 ml flask. When the cultures reach an OD500 of 0.35, the bacteria is aliquoted into separate conicals (50 mL) with 5 ml and compounds are added. The O.D. of the solutions are recorded every 30 minutes. The concentration which retards the growth of bacteria was selected as the PEC. The experiments were performed two times independently and the images are representative of results from two independent experiments. The experiment was done together with the compound published in (J. Med. Chem. 64, 2021, 10185) and therefore the graph for vancomycin is the same.
Cell wall biosynthesis inhibition assay or Bubble assay […]

[3] = test system: stationary phase cells of MRSA; experiment: Antibacterial activity against stationary phase bacteria; type: cell-based, S. aureus; settings: for time to complete eradication: stationary phase MRSA
Protocol: The stationary phase cells and persister cells are metabolically repressed and phenotypically different from the log-phase cells.[27] For activity, the commonly used drugs, vancomycin, and linezolid require actively ongoing cellular processes. They are therefore ineffective against non-dividing bacteria. […] The integrity of the bacterial membrane is imperative to survival irrespective of metabolic state. […] It completely eradicated cells in 24 h at 10 μM and within 6 h at 20 μM. […]
Antibacterial activity against stationary phase bacteria
MRSA ATCC 33591 was grown to mid-log phase at 37 °C. The bacterial suspension was diluted 1000-fold in nutrient media and allowed to reach stationary phase in 16 h. The bacterial suspension was diluted and spot-plated to determine the bacterial count. The 16 h growth culture was diluted to ~10^6 CFU/mL in PBS. 150 μL of this bacterial suspension was then incubated with 50 μL of test compounds in a 96 well-plate. The compound and bacteria were then incubated at 37 °C for 2h. The suspension was serially diluted 10 fold and spot-plated on […]. The viable bacteria were then counted after 48 h incubation at 37 °C. The results represented are the average of two independent experiments carried in duplicates. […]

[4] = Acinetobacter baumannii, MTCC1425, read-out: Minimum inhibitory concentration, AB 1425

Row | Structure (SMILES) | MIC [1] [µM] | MIC [2, 4] [µM] | cell wall biosynthesis inhibition (bubbles after acetic acid/methanol fixation) (B. subtilis) | time to complete eradication ([3]; 10 μM) [h] | time to complete eradication ([3]; 20 μM) | effect on viable stationary phase cells ([3]; 40 μM, 24 h) | MIC ([1]; MRSA ATCC 33591) [µM] | MIC ([2]; Acinetobacter baumannii, MTCC1425; read-out: Minimum inhibitory concentration, AB 1425) [µM]
1 | CCCCCCCCCCNC(=O)C[N+](C)(C)CCCNC(=O)C1NC(=O)C2NC(=O)C(NC(=O)C3NC(=O)C(CC(N)=O)NC(=O)C(NC(=O)C(CC(C)C)NC)C(O)c4ccc(c(Cl)c4)Oc4cc3cc(c4OC3OC(CO)C(O)C(O)C3OC3CC(C)(N)C(O)C(C)O3)Oc3ccc(cc3Cl)C2O)c2ccc(O)c(c2)-c2c(O)cc(O)cc21 (stereo not shown) [VanQAmC10 (8)] | 0.4 | 6.3 | showed bubbles on the surface | 24 | up to 6 h | – | – | –
2 | CN[C@H](CC(C)C)C(=O)N[C@H]1C(=O)N[C@@H](CC(N)=O)C(=O)N[C@H]2C(=O)N[C@H]3C(=O)N[C@H](C(=O)N[C@H](C(=O)O)c4cc(O)cc(O)c4-c4cc3ccc4O)[C@H](O)c3ccc(c(Cl)c3)Oc3cc2cc(c3O[C@@H]2O[C@H](CO)[C@@H](O)[C@H](O)[C@H]2O[C@H]2C[C@](C)(N)[C@H](O)[C@H](C)O2)Oc2ccc(cc2Cl)[C@H]1O [Vancomycin, reference compound] | 0.6 (≈ 0.87 µg/mL) | 100 (≈ 145 µg/mL) | showed bubbles on the surface | – | – | did not reduce the number of viable stationary phase cells | – | –
3 | CNC(CC(C)C)C(=O)NC1C(=O)NC(CC(N)=O)C(=O)NC2C(=O)NC3C(=O)NC(C(=O)NC(C(=O)NCCC[N+](C)(C)Cc4ccc(-c5ccccc5)cc4)c4cc(O)cc(O)c4-c4cc3ccc4O)C(O)c3ccc(c(Cl)c3)Oc3cc2cc(c3OC2OC(CO)C(O)C(O)C2OC2CC(C)(N)C(O)C(C)O2)Oc2ccc(cc2Cl)C1O (stereo not shown) [VanQbiph (4)] | – | – | showed bubbles on the surface | – | 24 h | – | 0.5 | 15.7
